# Measurements taken from PMC8234462, “Novel Cyclophilin Inhibitor Decreases Cell Proliferation and Tumor Growth in Models of Hepatocellular Carcinoma” (Cancers, 2021).
# Experiments:
# Bone marrow progenitors = test: Cytotoxicity, colony formation; format: cell-based, human; details: 14 days of treatment, colonies counted
# Procedure: The evaluation of the off-target effects of NV651 was performed by ImQuest BioSciences Inc. (Frederick, MD, USA) by analyzing the cytotoxicity in a panel of primary cells. NV651 was evaluated at a concentration of 30 µM and five serial half-logarithmic dilutions in triplicate. The positive control compounds for each cell type were purchased from Sigma-Aldrich (St. Louis, MO, USA) and were as follows: Unstimulated human peripheral blood mononuclear cells (PBMCs), phytohemagglutinin (PHA)-stimulated PBMCs, monocytes/macrophages, dendritic cells, hepatocytes, induced pluripotent stem cell (iPS) neurons: […] AZT, kidney cells (RPTEC): cisplatin and iPS cardiomyocytes: Doxazosin. Bone marrow progenitor cells (Invitrogen, Waltham, MA, USA) were suspended in cell culture medium (Iscove-modified Dulbecco medium) containing 15% FBS, 10% giant tumor-conditioned medium (Bone Marrow Plus, Sigma-Aldrich, St. […] Cells (1 × 10^5 cells/well) were seeded in 6-well plates containing NV651 in triplicate. Cells were incubated for 14 days, and colonies (more than 30 cells) were counted.
# Cyp40 = Cyp40 (Homo sapiens, UniProt Q08752); test: PPIase activity assay (chymotrypsin-coupled); format: biochemical; details: free-cell assay; Cyp equilibrated 1 h at 5 °C with inhibitor; read-out: absolute IC50, PPIase activity Cyp40
# Procedure: (§1) The PPIase activity of CypA, CypB, CypD and Cyp40 was determined by following the rate of hydrolysis of N-succinyl-Ala-Ala-Pro-Phe-p-nitroanilide by chymotrypsin, a digestive enzyme that only hydrolyzes the trans form of the peptide. Therefore, the hydrolysis of the cis form, the concentration of which is maximized by using a stock dissolved in trifluoroethanol containing 470-mM LiCl, is only possible with the isomerization from the cis to the trans form. […] The reaction was started with the peptide addition, and the change in absorbance was monitored spectrophotometrically at a 6-s interval for 6 min. The blank rates of hydrolysis (in the absence of Cyps) were subtracted from the rates in the presence of Cyps. The initial rates of the enzymatic reaction were analyzed by a first-order regression analysis of the time course of the change in absorbance.
# CypD = CypD (Homo sapiens, UniProt P30405); test: PPIase activity assay (chymotrypsin-coupled); format: biochemical; details: free-cell assay; Cyp equilibrated 1 h at 5 °C with inhibitor; read-out: absolute IC50, PPIase activity CypD
# Procedure: as §1
# CypB = CypB (Homo sapiens, UniProt P23284); test: PPIase activity assay (chymotrypsin-coupled); format: biochemical
# Procedure: as §1
# HEP3B2.1-7-Luc = test: Cell proliferation assay: Acumen; format: cell-based; details: Homo sapiens, 168 h, 7 days, read-out: Abs IC50 growth inhibition
# Procedure: (§2) Compound screening and comparison of the antiproliferative effect of NV651 and sorafenib were performed by Shanghai ChemPartner Co., Ltd. (Shanghai, China). Cells were seeded in a 96-well plate at the following concentrations: LIXC-003 400 cells/well, LIXC-004 1000 cells/well, LIXC-086 5000 cells/well, LIXC-066 1250 cells/well, LIXC-012 2000 cells/well, LIXC-006 1250 cells/well, HEPG2 1000 cells/well, HUH7 2000 cells/well and Hep3B2.1-7-Luc 1000 cells/well. Cells were treated with either sorafenib or NV651 at 0.004, 0.011, 0.034, 0.103, 0.309, 0.926, 2.778, 8.333, 25 µM or an equivalent volume with DMSO.
# (§3) After 7 days, cells were trypsinized and collected. Fifty microliters of cell suspension were added to 50 µL of 2-µM Calcein AM (Invitrogen, Cat# C3099, Waltham, MA, USA) diluted in HBSS and placed in a black-walled 96-well plate. The plate was left for 30 min at room temperature, followed by a scan with Acumen eX3.
# (§4) Growth inhibition for direct cell counting (%) by Acumen was calculated as:(1) 100−100∗Experimental count−Blank/DMSO count −Blank
# HUH7 = test: Cell proliferation assay: Acumen; format: cell-based; details: Homo sapiens, Huh-7, 168 h, 7 days, read-out: Abs IC50 growth inhibition
# Procedure: as §2, §3, §4
# LIXC-066 = test: Cell proliferation assay: Acumen; format: cell-based; details: Homo sapiens, 168 h, 7 days, read-out: Abs IC50 growth inhibition
# Procedure: as §2, §3, §4
# LIXC-003 = test: Cell proliferation assay: Acumen; format: cell-based; details: Homo sapiens, 168 h, 7 days, read-out: Abs IC50 growth inhibition
# Procedure: as §2, §3, §4
# LIXC-012 = test: Cell proliferation assay: Acumen; format: cell-based; details: Homo sapiens, 168 h, 7 days, read-out: Abs IC50 growth inhibition
# Procedure: as §2, §3, §4
# LIXC-006 = test: Cell proliferation assay: Acumen; format: cell-based; details: Homo sapiens, 168 h, 7 days, read-out: Abs IC50 growth inhibition
# Procedure: as §2, §3, §4
# HEPG2 = test: Cell proliferation assay: Acumen; format: cell-based; details: Homo sapiens, 168 h, 7 days, read-out: Abs IC50 growth inhibition
# Procedure: as §2, §3, §4
# LIXC-004 = test: Cell proliferation assay: Acumen; format: cell-based; details: Homo sapiens, 168 h, 7 days, read-out: Abs IC50 growth inhibition
# Procedure: as §2, §3, §4
# LIXC-086 = test: Cell proliferation assay: Acumen; format: cell-based; details: Homo sapiens, 168 h, 7 days, read-out: Abs IC50 growth inhibition
# Procedure: as §2, §3, §4
# Dendritic cells = test: Cytotoxicity, CellTiter Glo; format: cell-based; details: Homo sapiens, Dendritic cell, 168 h, 7 days of treatment, read-out: IC50 (50% reduction in cell viability)
# Procedure: The evaluation of the off-target effects of NV651 was performed by ImQuest BioSciences Inc. (Frederick, MD, USA) by analyzing the cytotoxicity in a panel of primary cells. NV651 was evaluated at a concentration of 30 µM and five serial half-logarithmic dilutions in triplicate. The positive control compounds for each cell type were purchased from Sigma-Aldrich (St. Louis, MO, USA) and were as follows: Unstimulated human peripheral blood mononuclear cells (PBMCs), phytohemagglutinin (PHA)-stimulated PBMCs, monocytes/macrophages, dendritic cells, hepatocytes, induced pluripotent stem cell (iPS) neurons: […] AZT, kidney cells (RPTEC): cisplatin and iPS cardiomyocytes: Doxazosin. The isolation was based on Nair, Archer. Briefly, freshly separated PBMCs from one donor were suspended in DPBS at 4 × 10^6 cells per mL and cultured in a T-75 flask. Cells were incubated for 30 min and then washed 5–7 times with DPBS to remove nonadherent cells. Cells were cultured in RPMI 1640 supplemented with 10% FBS, 2-mM L-glutamine, 25-mM HEPES, […], 100-µg/mL streptomycin, 50-ng/mL rhGM-CSF and 50-ng/mL rhIL-4 and incubated for 7 days. After the incubation period, cells were cultured in the same media with the addition of LPS (10 ng/mL) for two days. […]
# RPTECs = test: Cytotoxicity, CellTiter Glo; format: cell-based, human; details: 3 days of treatment, read-out: IC50 (50% reduction in cell viability)
# Procedure: The evaluation of the off-target effects of NV651 was performed by ImQuest BioSciences Inc. (Frederick, MD, USA) by analyzing the cytotoxicity in a panel of primary cells. NV651 was evaluated at a concentration of 30 µM and five serial half-logarithmic dilutions in triplicate. The positive control compounds for each cell type were purchased from Sigma-Aldrich (St. Louis, MO, USA) and were as follows: Unstimulated human peripheral blood mononuclear cells (PBMCs), phytohemagglutinin (PHA)-stimulated PBMCs, monocytes/macrophages, dendritic cells, hepatocytes, induced pluripotent stem cell (iPS) neurons: […] AZT, kidney cells (RPTEC): cisplatin and iPS cardiomyocytes: Doxazosin. Human primary renal proximal tubule cells (hRPTEC, Lonza, Basel, Switzerland) were cultured at 1 × 10^4 cells/well in supplemented REGM medium (Lonza, Basel, Switzerland). Following overnight incubation for adherence, cells were treated with NV651 in triplicate. After a 3-day treatment, CellTiter Glo (Promega, Madison, WI, USA) was used. CellTiter Glo was performed to evaluate cell viability. CellTiter Glo Luminescent Cell Viability Assay (Promega, Madison, WI, USA) was performed according to the manufacturer’s instructions.
# iPS cardiomyocytes = test: Cytotoxicity, CellTiter Glo; format: cell-based; details: Homo sapiens, Cardiomyocyte, 72 h, 3 days of treatment, read-out: IC50 (50% reduction in cell viability)
# Procedure: The evaluation of the off-target effects of NV651 was performed by ImQuest BioSciences Inc. (Frederick, MD, USA) by analyzing the cytotoxicity in a panel of primary cells. NV651 was evaluated at a concentration of 30 µM and five serial half-logarithmic dilutions in triplicate. The positive control compounds for each cell type were purchased from Sigma-Aldrich (St. Louis, MO, USA) and were as follows: Unstimulated human peripheral blood mononuclear cells (PBMCs), phytohemagglutinin (PHA)-stimulated PBMCs, monocytes/macrophages, dendritic cells, hepatocytes, induced pluripotent stem cell (iPS) neurons: […] AZT, kidney cells (RPTEC): cisplatin and iPS cardiomyocytes: Doxazosin. iPS cardiomyocytes (Cellular Dynamics, Madison, WI, USA) were seeded in a 96-well plate precoated with 0.1% gelatin (Sigma-Aldrich, St. Louis, MO, USA) in a plating medium (Cellular dynamics, Madison, WI, USA) at a concentration of 1.5 × 10^4 cells/well. After 48 h of incubation, cells were washed, and NV651 diluted in the maintenance medium (Cellular Dynamics, Madison, WI, USA) was added. After 3 days of incubation, cell viability was measured with CellTiter Glo (Promega, Madison, WI, USA). CellTiter Glo was performed to evaluate cell viability. CellTiter Glo Luminescent Cell Viability Assay (Promega, Madison, WI, USA) was performed according to the manufacturer’s instructions.
# CypD, sequence (P30405 30-207): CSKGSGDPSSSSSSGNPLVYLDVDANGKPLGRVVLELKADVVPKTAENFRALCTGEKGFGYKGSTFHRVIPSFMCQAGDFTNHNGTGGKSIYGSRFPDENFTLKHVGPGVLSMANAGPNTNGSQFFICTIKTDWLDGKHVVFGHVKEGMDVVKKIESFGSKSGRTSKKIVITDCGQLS
# CypB, sequence (P23284 34-216): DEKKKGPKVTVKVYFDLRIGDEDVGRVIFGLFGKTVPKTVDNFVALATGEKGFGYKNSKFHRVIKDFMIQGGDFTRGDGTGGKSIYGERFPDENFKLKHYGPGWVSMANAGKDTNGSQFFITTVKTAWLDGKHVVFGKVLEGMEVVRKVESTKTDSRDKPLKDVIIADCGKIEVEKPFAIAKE
# Cyp40, sequence (Q08752 whole entry): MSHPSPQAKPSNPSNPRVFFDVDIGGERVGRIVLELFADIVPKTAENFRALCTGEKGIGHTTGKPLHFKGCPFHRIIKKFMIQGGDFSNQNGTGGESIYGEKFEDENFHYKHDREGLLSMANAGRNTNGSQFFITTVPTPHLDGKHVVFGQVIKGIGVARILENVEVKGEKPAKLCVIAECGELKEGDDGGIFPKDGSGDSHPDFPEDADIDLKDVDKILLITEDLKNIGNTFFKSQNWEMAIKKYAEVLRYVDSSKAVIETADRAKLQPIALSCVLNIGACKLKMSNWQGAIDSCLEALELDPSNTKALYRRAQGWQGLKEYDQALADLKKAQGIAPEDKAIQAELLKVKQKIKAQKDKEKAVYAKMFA
smiles,measurement,setting,value
"Cc1cn([C@H]2C[C@H](N=[N+]=[N-])[C@@H](CO)O2)c(=O)[nH]c1=O [AZT, reference compound]",IC50,Bone marrow progenitors,890 nM
"CC[C@H]1C[C@H](C)[C@@]2(NC1=O)O[C@@H](C[C@H](O)[C@@H](C)CC/C=C/C=C(\C)[C@@H]1C/C=C/C=C/[C@H](O)[C@H](C)[C@@H](O)[C@@H](CCC(C)=O)C(=O)N[C@@H](C(C)C)C(=O)N[C@@H](Cc3cccc(O)c3)C(=O)N3CCC[C@H](N3)C(=O)O1)[C@H](C)[C@H](O)[C@@H]2C [SfA, Sanglifehrin A, reference compound]",IC50,Cyp40,5.62 nM
same,IC50,CypD,5.25 nM
same,IC50,CypB,5.12 nM
"CNC(=O)c1cc(Oc2ccc(NC(=O)Nc3ccc(Cl)c(C(F)(F)F)c3)cc2)ccn1 [Sorafenib, reference compound]",IC50,HEP3B2.1-7-Luc,3900 nM
same,IC50,HUH7,739 nM
same,IC50,LIXC-066,1650 nM
same,IC50,LIXC-003,3 nM
same,IC50,LIXC-012,1250 nM
same,IC50,LIXC-006,3350 nM
same,IC50,HEPG2,2330 nM
same,IC50,LIXC-004,1450 nM
same,IC50,LIXC-086,1900 nM
"CN[C@@H]1C[C@H]2O[C@@](C)([C@@H]1OC)n1c3ccccc3c3c4c(c5c6ccccc6n2c5c31)C(=O)NC4 [Staurosporine, reference compound]",IC50,Dendritic cells,9 nM
"N.N.[Cl][Pt][Cl] [cisplatin, reference compound]",IC50,RPTECs,9 nM
"COc1cc2nc(N3CCN(C(=O)C4COc5ccccc5O4)CC3)nc(N)c2cc1OC (stereo not shown) [doxazosin, reference compound]",IC50,iPS cardiomyocytes,39800 nM
